PubChem BioAssay AID1918948 (Molecular Pharmacology Branch, DTP, NCI, 2023)
pIC50: −log10 of the molar value.

Test system: K-562 leukemia growth, % test/control
Test: Anticancer human tumor K-562 cell line growth inhibition;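 further: spheroids exposed to compounds for 7 days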;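 on viability, T/C: 100% = DMSO vehicle wells and lower values mean fewer viable cells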
Settings: spheroids with HUVEC and MSC; for pIC50: curve of first compound; for viability, T/C: stronger effect = lower value
Text: Multicellular complex tumor spheroid response to LSD1 Inhibitor Iadademstat in combination with a variety of drugs and investigational agents in selected tumor cell lines
The current study was undertaken to assess response to LSD1 inhibitors in combination with standard-of-care drugs and investigational agents in solid tumor complex spheroid models as well as in the K-562 leukemia. Complex spheroids include a stromal component modeled by human endothelial cells (HUVEC) and fibroblasts modeled by human mesenchymal stem cells (MSCs). The concentration ranges selected for each drug and investigational agent were based upon clinically achievable concentrations if the clinical Cmax of the agent was known.
Compounds. The drugs and investigational agents used in this study are listed on Table 1. All of the agents used, including staurosporine (NSC755774) and gemcitabine (NSC613327), were obtained from the Developmental Therapeutics Program, NCI. FDA-approved anticancer drugs are available from the NCI at http://dtp.nci.nih.gov/branches/dscb/oncology_drugset_explanation.html. Drugs and investigational agents were >95% pure by proton nuclear magnetic resonance (NMR) and liquid chromatography/mass spectrometry (LC/MS). Stock solutions were prepared at 400x in DMSO, stored at -70 degrees C, and diluted in fresh medium prior to their use. The final concentration of DMSO in cell culture wells never exceeded 0.25% (v/v). The FDA-approved anticancer drug set is available from the Developmental Therapeutics Program at https://dtp.cancer.gov/organization/dscb/obtaining/available_plates.htm. All drugs and investigational agents were tested over a range starting from a high concentration at or near the clinical Cmax and decreasing in half-log increments. If the clinical Cmax for an agent had not been determined, the highest concentration tested was 10 microM.
Cell Lines. The patient-derived cancer cell (PDC) lines: 292921-168-R-J2-PDC, K24384-001-R-PDC, and 521955-158-R2-J5-PDC pancreatic carcinomas, 556581-035-R-J1 ovarian carcinoma, 324938-238-R-J1-PDC, 855422-203-R-J1-PDC and 883617-216-R-J1-PDC urothelial bladder carcinomas, 743489-274-T-PDC renal cell carcinoma, 138582-R-J1 Merkel cell tumor, K60290-347-R-J1 and K57222-313-R-J1-PDC glioblastomas, 653999-131-R-J2-PDC, LG0703-F948-PDC, and 349418-098-R-PDC non-small cell lung carcinomas, 885512-296-R-J2-PDC, 171881-019-R-J1-PDC breast carcinomas and 186277-243-T-J2-PDC and 233499-124-R-J2-PDC colon carcinomas were obtained from the NCI Patient-Derived Models Repository (PDMR, https://pdmr.cancer.gov). The established cell lines NCI/ADR-RES (RRID:CVCL_14520 and OVCAR-5 (RRID:CVCL_1628) ovarian carcinomas, 786-O (RRID:CVCL_1051) and A498 (RRID:CVCL_A498) renal cell carcinoma, NCI-H211 (ATCC, cat. CRL-5824; RRID:CVCL_1529), NCI-H196 (ATCC, cat. CRL-5823, RRID:CVCL_1509), SW 1271 (ATCC, cat. CRL-2177, RRID:CVCL_1716) and NCI-H1876 (ATCC, cat. CRL-5902, RRID:CVCL_1503) small cell lung carcinomas, MDA-MB-231 (RRID:CVCL_0062) and MDA-MB-468 (RRID:CVCL_0419)breast carcinomas (10-12). Pooled donor human umbilical vein endothelial cells (HUVEC, Lonza, cat. CC-2519) and human mesenchymal stem cells (hMSC, Lonza, cat. PT-2501) were purchased from Lonza (Walkersville, MD).
Cell Culture. All cells were maintained in an incubator at 37 degrees C and 5% CO2 with 95% humidity. The PDC lines were cultured according to standard operating procedures established by the NCI PDMR (https://pdmr.cancer.gov). Briefly all PDCs were thawed and cultured in Matrigel-coated flasks prepared with a working solution of 1X Ham's F-12 nutrient mix, without supplementation (Invitrogen, Waltham, MA, cat. 11765054), 100 U/mL penicillin-streptomycin (Invitrogen, cat. 15140122), and 2.5% Matrigel (Corning Inc., Corning, NY, cat. 354248) for the first three passages. […]

CC[C@@]1(O)C(=O)OCc2c1cc1n(c2=O)Cc2cc3c(CN(C)C)c(O)ccc3nc2-1 + NC1CC1c1ccc(-c2cccc(O)c2)cc1
pIC50 (second compound 0.1 µM): 8.12 | pIC50 (second compound 0.316 µM): 8.24 | pIC50 (second compound 1 µM): 8.27 | pIC50 (second compound 3.16 µM): 8.30 | pIC50 (second compound 10 µM): 8.38 | viability, T/C (second compound 0.1 µM, first compound 0.000316 µM): 113% | viability, T/C (second compound 0.1 µM, first compound 0.001 µM): 107% | viability, T/C (second compound 0.1 µM, first compound 0.00316 µM): 61.6% | viability, T/C (second compound 0.1 µM, first compound 0.01 µM): 50.7% | viability, T/C (second compound 0.1 µM, first compound 0.0316 µM): 18.9% | viability, T/C (second compound 0.1 µM, first compound 0.1 µM): 8.32% | viability, T/C (second compound 0.316 µM, first compound 0.000316 µM): 109% | viability, T/C (second compound 0.316 µM, first compound 0.001 µM): 106% | viability, T/C (second compound 0.316 µM, first compound 0.00316 µM): 60.2% | viability, T/C (second compound 0.316 µM, first compound 0.01 µM): 38.5% | viability, T/C (second compound 0.316 µM, first compound 0.0316 µM): 13.9% | viability, T/C (second compound 0.316 µM, first compound 0.1 µM): 5.85% | viability, T/C (second compound 1 µM, first compound 0.000316 µM): 107% | viability, T/C (second compound 1 µM, first compound 0.001 µM): 100% | viability, T/C (second compound 1 µM, first compound 0.00316 µM): 59.9% | viability, T/C (second compound 1 µM, first compound 0.01 µM): 36.5% | viability, T/C (second compound 1 µM, first compound 0.0316 µM): 12% | viability, T/C (second compound 1 µM, first compound 0.1 µM): 6.28% | viability, T/C (second compound 3.16 µM, first compound 0.000316 µM): 104% | viability, T/C (second compound 3.16 µM, first compound 0.001 µM): 99.7% | viability, T/C (second compound 3.16 µM, first compound 0.00316 µM): 56.5% | viability, T/C (second compound 3.16 µM, first compound 0.01 µM): 35.1% | viability, T/C (second compound 3.16 µM, first compound 0.0316 µM): 11% | viability, T/C (second compound 3.16 µM, first compound 0.1 µM): 6.02% | viability, T/C (second compound 10 µM, first compound 0.000316 µM): 99.4% | viability, T/C (second compound 10 µM, first compound 0.001 µM): 94.9% | viability, T/C (second compound 10 µM, first compound 0.00316 µM): 52.4% | viability, T/C (second compound 10 µM, first compound 0.01 µM): 29.4% | viability, T/C (second compound 10 µM, first compound 0.0316 µM): 9.44% | viability, T/C (second compound 10 µM, first compound 0.1 µM): 3.98%
